Source: patent US20220145303A1, “FRAGILE X MENTAL RETARDATION PROTEIN INTERFERING OLIGONUCLEOTIDES AND METHODS OF USING SAME” (Nogra Pharma Limited, priority 2019, published 2022)

How the values were obtained:
[1] = system: CREB; assay: Western blot of CREB after CREB antisense transfection; format: cell-based; details: human CRC cell lines, 200 nM, 24 or 48 hours, vs untreated or sense control, FIGS. 7D, 7E
Procedure: (§1) To asses if CREB regulates FMRP expression, CRC cell lines were transfected with either CREB antisense (ASc) (5′-[…]-3′) (SEQ ID NO: 16) or CREB sense (Ss) (5′-[…]-3′)(SEQ ID NO: 17)(final concentration 200 nM) for 24 or 48 hours. mRNA and total protein lysates were prepared and analyzed by RT-PCR and Western blot, respectively, as previously described in Examples 1 to 3.

[2] = system: FMRP; assay: Western blot of FMRP after CREB antisense transfection; format: cell-based; details: human CRC cell lines, CREB antisense 200 nM, 24 or 48 hours, FIGS. 7D, 7F
Procedure: as §1

[3] = system: CRC cells; assay: Antisense-induced cell death after pan-caspase inhibitor pre-treatment (PI/AnnV flow cytometry); format: cell-based, human; details: Q-VD-OPh 1 μM pre-treatment, FIG. 4C
Procedure: (§2) Immunotools, Friesoythe, Germany) according to the manufacturer's instructions, and incubated with […] of propidium iodide (PI) for 30 min at 4° C. Cells were also transfected with either FMRP sense oligonucleotide or FMRP AS oligonucleotide (final concentration 100 nM) for 36 hours and analyzed for activated caspase 3 and caspase 8. […] Additionally, 36 hours (FIGS. 4F and 4G) or 48 hours post-transfection (FIGS. 4D and 4E), cells were pulsed with […] bromodeoxyuridine for 60 minutes, fixed in 70% cold ethanol, and stored at −20° C. for at least 3 hours. […] Fluorescence was measured using Gallios Flow Cytometer (Beckman Coulter, Life Sciences, Pasadena, Calif., USA) and analyzed using Kaluza software (Beckman Coulter). Viable cells were considered as AV^−/PI^− cells.

[4] = system: human CRC cell lines; assay: Antisense-induced cell death with RIPK1 or MLKL inhibitor (PI/AnnV flow cytometry); format: cell-based; details: NEC1 10 μM, NSA 1 μM, 24 hours, FIGS. 6E, 6F
Procedure: To confirm the association of FMRP with components of the necroptosis pathway, cells were left untreated or transfected with either FMRP antisense oligonucleotide (final concentration 0.5 nM and 100 nM) or FMRP sense oligonucleotide (final concentration 100 nM); incubated with a pMLKL inhibitor (necrosulfonamide, NSA; final concentration 1 μM)(Calbiochem); or a pRIPK1 inhibitor (necrostatinl, NEC1; final concentration 10 μM)(Cayman Chemical, Ann Arbor, Mich. USA). After 24 hours cells were collected and analyzed by Western blot, or stained with FITC-Annexin V and PI for flow cytometry analysis, as previously described in Examples 1-3.

[5] = system: caspase 3; assay: Activated caspase 3 by flow cytometry in CRC cells; format: cell-based, human; details: oligonucleotide 100 nM 36 hours, staurosporin 1 μM, FIGS. 4A, 4B
Procedure: as §2

[6] = system: FMRP; assay: FMRP knockdown: Western blot of FMRP after transfection with FMRP antisense or sense oligonucleotide; format: cell-based, human; details: 48 hours, AS 0.5-100 nM, S 100 nM
Procedure: Total proteins were extracted from mouse colonic tissues, and lysed on ice in buffer containing 10 mM HEPES [pH 7.9], 10 mM KCl, 0.1 mM EthyleneDiamineTetraacetic Acid (EDTA), 0.2 mM Ethylene Glycol-bis (β-aminoethyl ether)-N,N,N′,N′-Tetraacetic Acid (EGTA) and 0.5% Nonidet P40 supplemented with 1 mM dithiothreitol (DTT), […], […], 1 mM phenylmethylsulfonyl fluoride (PMSF), 1 mM Na3VO4, and 1 mM NaF. Lysates were clarified by centrifugation and separated on sodium dodecyl sulphate (SDS)-polyacrylamide gel electrophoresis. Blots were incubated with antibodies against: FMRP (Cell Signaling, Danvers, Mass.), followed by a secondary antibody conjugated to horseradish peroxidase (Dako, Milan, Italy). After analysis, each blot was stripped and incubated with a mouse-anti-human monoclonal β-actin antibody (Sigma-Aldrich) to ascertain equivalent loading of the lanes.
Human CRC cell lines, DLD-1 and HCT-116, were obtained from the American Type Culture Collection (ATCC, Manassas, Va.) and cultured in RPMI 1640 (DLD-1) and McCoy's 5A (HCT-116) medium, respectively. All media were supplemented with 10% fetal bovine serum, 1% penicillin/streptomycin (both from Lonza, Verviers, Belgium). The normal human colon epithelial cell line (HCEC-1ct) was obtained from EVERCYTE GmbH (Vienna, Austria) and cultured in ColoUp® medium (EVERCYTE GmbH). Cells were maintained in a 37° C., 5% CO2, fully humidified incubator. Cell line lysates were prepared and analyzed by SDS-polyacrylamide gel electrophoresis/immunoblot using methods as previously described in Example 2. For immunofluorescent staining, cell lines were fixed with 3.7% formaldehyde for 10 minutes at 4° C., permeabilized with 0.1% Triton for 10 minutes at room temperature and blocked (1% bovine serum albumin, Tween 0.1%, glycine 2%) for 1 hour at room temperature. Fixed and blocked cells were incubated with anti-FMRP monoclonal antibody (1:500, Cell Signaling, Danvers, Mass.) overnight at 4° C. After washing with PBS, secondary antibody goat anti-rabbit Alexa 488 (1:2000, A11008; Invitrogen) was applied for 1 hour at room temperature. Slides were washed with PBS, mounted using Prolong Gold® anti-fade reagent with 4′,6-diamidino-2-phenylindole (P36931; Invitrogen) and analyzed by a Leica DMI4000 B microscope with Leica application suite software (V4.6.2).
Phosphorothioate single-stranded antisense oligonucleotides complementary to human FMRP [5′-[…]-3′ (SEQ ID NO: 6)] and single-stranded sense oligonucleotides [5′-[…]-3′ (SEQ ID NO: 15)] were synthesized. CRC cell lines and HCEC-1ct cells were transfected with either FMRP antisense (AS)(final concentration 0.5-100 nM) or FMRP sense oligonucleotide (S) (final concentration100 nM) for 24 and 48 hours, using Opti-MEM medium and lipofectamine 3000 reagent (Thermo Fisher Scientific, Waltham, Mass., USA) according to the manufacturer's instructions.

5′-GCATCTCCACTCTGCTGGTT-3′ (listed as DNA, chemistry not given here) [CREB antisense oligonucleotide, CREB antisense (ASc)]
CREB protein expression [1]: reduced expression of CREB protein | FMRP protein expression [2]: concomitant reduction in FMRP protein expression

CC(C)[C@H](NC(=O)c1ccc2ccccc2n1)C(=O)N[C@@H](CC(=O)O)C(=O)COc1c(F)cccc1F [Q-VD-OPh]
effect of pre-treatment on FMRP antisense oligonucleotide-induced cell death [3]: did not alter FMRP antisense oligonucleotide-induced cell death

CN1C(=O)C(Cc2c[nH]c3ccccc23)NC1=S (stereo not drawn) [necrostatin 1]
effect on FMRP antisense oligonucleotide-induced cell death [4]: protected from FMRP antisense oligonucleotide-induced cell death

CN[C@@H]1C[C@H]2O[C@@](C)([C@@H]1OC)n1c3ccccc3c3c4c(c5c6ccccc6n2c5c31)C(=O)NC4 [staurosporin, reference compound]
percentage of activated caspase 3-positive cells [5]: significantly increased

COc1nccnc1NS(=O)(=O)c1ccc(NC(=O)/C=C/c2ccc([N+](=O)[O-])s2)cc1 [necrosulfonamide]
effect on FMRP antisense oligonucleotide-induced cell death [4]: protected from FMRP antisense oligonucleotide-induced cell death

5′-ATGGAGGAGCTGGTGGTGGA-3′ (DNA, backbone and methylation of C not given here; further chemistry not fully specified) [sense oligonucleotide, single-stranded sense oligonucleotides, control, reference compound]
FMRP expression ([6]; DLD-1 cells, FIG. 3D): no significant inhibition | FMRP expression ([6]; HCEC-1ct cells, FIG. 3I): no significant inhibition | FMRP expression ([6]; HCT-116 cells, FIG. 3G): no significant inhibition
